Counter-ions that a name gives are not always drawn.
What follows are compounds tested on human bronchial epithelial (HBE) cells (assay: Airway surface liquid drug (ASL) clearance and metabolism by human airway epithelium). Details: Table 4: HBE cells, 25 μL of 25 μM apical, 2 h, 37° C.; mean ± SD.
Assay type: in vitro ADME
Method: Assay 3. Airway Surface Liquid Drug (ASL) Clearance and Metabolism by Human Airway Epithelium
The disappearance of Compound II-d from the apical surface and airway epithelial metabolism were assessed in human bronchial epithelial (HBE) cells (Table 3). In these experiments 25 μL of a 25 μM solution of ENaC blocker was added to the apical surface of HBE cells grown at an air/liquid interface, and the drug concentration in the apical and basolateral compartment was measured over 2 h by UPLC.
Therefore, the compounds of Formula (A) have a longer half-life on mucosal surfaces compared to these know compounds as evidenced by the data shown in Table 4. The disappearance of Compound II-d from the apical surface and airway epithelial metabolism were assessed in HBE and compared to Comparative Example 1 (Table 4). In these experiments 25 μL of a 25 μM solution of ENaC blocker was added to the apical surface of HBE cells grown at an air/liquid interface, and the drug concentration in the apical and basolateral compartment was measured over 2 h by UPLC.

Compound | % of Initial Drug Mass on Apical Side (Parent and metabolite, 2 h) [%]
CCCCCCN(CCCN[C@@H](Cc1ccc(CCCCNC(=N)NC(=O)c2nc(Cl)c(N)nc2N)cc1)C(N)=O)C[C@H](O)[C@@H](O)[C@H](O)[C@H](O)CO [XVII-d] | 76.6 ± 14.7

Same assay, conditions: Table 4: HBE cells, 25 μL of 25 μM apical, 2 h; mean ± SD

Compound | % of Apical Mass as Metabolites (2 h) | % of Initial Apical Mass on Basolateral Side (2 h) [%] | % on Basolateral Side as Metabolites (2 h)
CCCCCCN(CCCN[C@@H](Cc1ccc2cc(CCCCNC(=N)NC(=O)c3nc(Cl)c(N)nc3N)ccc2c1)C(N)=O)C[C@H](O)[C@@H](O)[C@H](O)[C@H](O)CO [IX-m, 3,5-diamino-N—(N-(4-(6-((S)-3-amino-2-(3-(hexyl((2S,3R,4R,5R)-2,3,4,5,6-pentahydroxyhexyl)amino)propylamino)-3-oxopropyl)naphthalen-2-yl)butyl)carbamimidoyl)-6-chloropyrazine-2-carboxamide] | None | 1.1 ± 0.2 | None
CCCCCCN(CCCN[C@@H](Cc1ccc(CCCCNC(=N)NC(=O)c2nc(Cl)c(N)nc2N)c2ccccc12)C(N)=O)C[C@H](O)[C@@H](O)[C@H](O)[C@H](O)CO [VIII-d, 3,5-diamino-N—(N-(4-(4-((S)-3-amino-2-(3-(hexyl((2S,3R,4R,5R)-2,3,4,5,6-pentahydroxyhexyl)amino)propylamino)-3-oxopropyl)naphthalen-1-yl)butyl)carbamimidoyl)-6-chloropyrazine-2-carboxamide] | None | 2.0 ± 0.8 | None
CCCCCCN(CCCN[C@@H](Cc1ccc(CCCCNC(=N)NC(=O)c2nc(Cl)c(N)nc2N)cc1)C(N)=O)C[C@H](O)[C@@H](O)[C@H](O)[C@H](O)CO [XVII-d] | None | 1.9 ± 1.7 | None
CCCCCCN(CCCN[C@@H](CCc1ccc(CCCCNC(=N)NC(=O)c2nc(Cl)c(N)nc2N)c2ccccc12)C(N)=O)C[C@H](O)[C@@H](O)[C@H](O)[C@H](O)CO [VI-d, 3,5-diamino-N—(N-(4-(4-((S)-4-amino-3-(3-(hexyl((2S,3R,4R,5R)-2,3,4,5,6-pentahydroxyhexyl)amino)propylamino)-4-oxobutyl)naphthalen-1-yl)butyl)carbamimidoyl)-6-chloropyrazine-2-carboxamide hydrochloride] | None | 1.2 ± 0.5 | None
Cl.N=C(NCCCCc1ccc(CC[C@H](NCCCN(C[C@H](O)[C@@H](O)[C@H](O)[C@H](O)CO)C[C@H](O)[C@@H](O)[C@H](O)[C@H](O)CO)C(N)=O)c2ccccc12)NC(=O)c1nc(Cl)c(N)nc1N [V-d, 3,5-diamino-N—(N-(4-(4-((S)-4-amino-3-(3-(bis((2S,3R,4R,5R)-2,3,4,5,6-pentahydroxyhexyl)amino)propylamino)-4-oxobutyl)naphthalen-1-yl)butyl)carbamimidoyl)-6-chloropyrazine-2-carboxamide hydrochloride] | none | 9.3 ± 0.86 | None
N=C(NCCCCc1ccc(CC[C@H](NCCCN(C[C@H](O)[C@@H](O)[C@H](O)[C@H](O)CO)C[C@H](O)[C@@H](O)[C@H](O)[C@H](O)CO)C(N)=O)c2c1CCCC2)NC(=O)c1nc(Cl)c(N)nc1N [XV-dd, 3,5-diamino-N—(N-(4-(4-((S)-4-amino-3-(3-(bis((2S,3R,4R,5R)-2,3,4,5,6-pentahydroxyhexyl)amino)propylamino)-4-oxobutyl)-5,6,7,8-tetrahydronaphthalen-1-yl)butyl)carbamimidoyl)-6-chloropyrazine-2-carboxamide] | None | 1.81 ± 1.6 | None
CCCCCCN(CCCN[C@@H](Cc1ccc(CCCCNC(=N)NC(=O)c2nc(Cl)c(N)nc2N)c2c1CCCC2)C(N)=O)C[C@H](O)[C@@H](O)[C@H](O)[C@H](O)CO [XII-d, 3,5-diamino-N—(N-(4-(4-((S)-3-amino-2-(3-(hexyl((2S,3R,4R,5R)-2,3,4,5,6-pentahydroxyhexyl)amino)propylamino)-3-oxopropyl)-5,6,7,8-tetrahydronaphthalen-1-yl)butyl)carbamimidoyl)-6-chloropyrazine-2-carboxamide] | None | 9.6 ± 6.3 | None
N=C(NCCCCc1ccc2cc(CC[C@H](NCCCN(C[C@H](O)[C@@H](O)[C@H](O)[C@H](O)CO)C[C@H](O)[C@@H](O)[C@H](O)[C@H](O)CO)C(N)=O)ccc2c1)NC(=O)c1nc(Cl)c(N)nc1N [XIII-bb, 3,5-diamino-N—(N-(4-(6-((S)-4-amino-3-(3-(bis((2S,3R,4R,5R)-2,3,4,5,6-pentahydroxyhexyl)amino)propylamino)-4-oxobutyl)naphthalen-2-yl)butyl)carbamimidoyl)-6-chloropyrazine-2-carboxamide] | None | 4.2 ± 1.9 | None
N=C(NCCCCc1ccc(C[C@H](NCCCN(C[C@H](O)[C@@H](O)[C@H](O)[C@H](O)CO)C[C@H](O)[C@@H](O)[C@H](O)[C@H](O)CO)C(N)=O)c2ccccc12)NC(=O)c1nc(Cl)c(N)nc1N [VII-ee, 3,5-diamino-N—(N-(4-(4-((S)-3-amino-2-(3-(bis((2S,3R,4R,5R)-2,3,4,5,6-pentahydroxyhexyl)amino)propylamino)-3-oxopropyl)naphthalen-1-yl)butyl)carbamimidoyl)-6-chloropyrazine-2-carboxamide] | None | 6.4 ± 2.1 | None
CCCCCCN(CCCN[C@@H](CCc1ccc(CCCCNC(=N)NC(=O)c2nc(Cl)c(N)nc2N)cc1)C(N)=O)C[C@H](O)[C@@H](O)[C@H](O)[C@H](O)CO [III-d, 3,5-diamino-N—(N-(4-(4-((S)-4-amino-3-(3-(hexyl((2S,3R,4R,5R)-2,3,4,5,6-pentahydroxyhexyl)amino)propylamino)-4-oxobutyl)phenyl)butyl)carbamimidoyl)-6-chloropyrazine-2-carboxamide] | none | 3.5 ± 2.2 | None
CCCCCCN(CCCN[C@@H](CCc1ccc2cc(CCCCNC(=N)NC(=O)c3nc(Cl)c(N)nc3N)ccc2c1)C(N)=O)C[C@H](O)[C@@H](O)[C@H](O)[C@H](O)CO [XIV-d, 3,5-diamino-N—(N-(4-(6-((S)-4-amino-3-(3-(hexyl((2S,3R,4R,5R)-2,3,4,5,6-pentahydroxyhexyl)amino)propylamino)-4-oxobutyl)naphthalen-2-yl)butyl)carbamimidoyl)-6-chloropyrazine-2-carboxamide] | None | 0.32 ± 0.6 | None

Source: patent US10246425B2, “3,5-diamino-6-chloro-N-(N-(4-phenylbutyl)carbamimidoyl) pyrazine-2-carboxamide compounds” (Parion Sciences, Inc., priority 2012, dated 2019)
